Assay results reported in ChEMBL document CHEMBL1201862, “PubChem BioAssay data set” (2004).
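Method: 48-hour compound exposure of cells in 96-well plates, five concentrations, linear interpolation of endpoints. The concentration for 50% growth inhibition is given as GI50.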 The source made the active and inactive calls. Cut-off read from the data, not from the text of the source: active = GI50 up to about 1.1 µM and inactive = higher.

What was measured:
Test in all cases: growth of human tumour cells (NCI), 48 h
[1] = system: 786-0
[2] = system: A498
[3] = system: A549
[4] = system: ACHN
[5] = system: BT-549
[6] = system: CAKI-1
[7] = system: CCRF-CEM
[8] = system: COLO 205
[9] = system: DU-145
[10] = system: EKVX
[11] = system: HCC 2998
[12] = system: HCT-15
[13] = system: HL-60
[14] = system: HOP-62
[15] = system: HOP-92
[16] = system: HT-29
[17] = system: Hs-578T
[18] = system: IGROV-1
[19] = system: K562
[20] = system: KM12
[21] = system: LOX IMVI
[22] = system: M14
[23] = system: MCF7
[24] = system: MDA-MB-231
[25] = system: MDA-MB-435
[26] = system: MDA-N
[27] = system: MOLT-4
[28] = system: Malme-3M
[29] = system: NCI-H226
[30] = system: NCI-H460
[31] = system: NCI-H522
[32] = system: NCI/ADR-RES
[33] = system: OVCAR-3
[34] = system: OVCAR-4
[35] = system: OVCAR-5
[36] = system: OVCAR-8
[37] = system: PC-3
[38] = system: RPMI-8226
[39] = system: RXF 393
[40] = system: SF-268
[41] = system: SF-295
[42] = system: SF-539
[43] = system: SK-MEL-28
[44] = system: SK-MEL-2
[45] = system: SK-MEL-5
[46] = system: SK-OV-3
[47] = system: SN12C
[48] = system: SNB-19
[49] = system: SNB-75
[50] = system: SR
[51] = system: SW-620
[52] = system: T47D
[53] = system: TK-10
[54] = system: U-251
[55] = system: UACC-257
[56] = system: UACC-62
[57] = system: UO-31
[58] = system: HCT-116
[59] = system: NCI-H23

Nc1nc(Cl)cc(NCC2(CO)CC(CCCc3ccccc3)C2)n1 (stereo unspecified)
GI50 [1]: > 81.7 µM (inactive) | GI50 [2]: > 63.1 µM (inactive) | GI50 [3]: 14.7 µM (inactive) | GI50 [4]: > 41.8 µM (inactive) | GI50 [5]: > 100 µM (inactive) | GI50 [6]: > 100 µM (inactive) | GI50 [7]: > 73.1 µM (inactive) | GI50 [8]: > 100 µM (inactive) | GI50 [9]: > 100 µM (inactive) | GI50 [10]: > 25.3 µM (inactive) | GI50 [11]: > 100 µM (inactive) | GI50 [12]: > 100 µM | GI50 [13]: > 35.1 µM (inactive) | GI50 [14]: > 100 µM (inactive) | GI50 [15]: 34 µM (inactive) | GI50 [16]: 25.4 µM (inactive) | GI50 [17]: > 64.4 µM (inactive) | GI50 [18]: > 72.8 µM (inactive) | GI50 [19]: 2.11 µM (inactive) | GI50 [20]: > 100 µM (inactive) | GI50 [21]: 0.282 µM (active) | GI50 [22]: > 100 µM (inactive) | GI50 [23]: 0.0492 µM (active) | GI50 [24]: > 100 µM (inactive) | GI50 [25]: > 100 µM (inactive) | GI50 [26]: > 100 µM (inactive) | GI50 [27]: > 26.9 µM (inactive) | GI50 [28]: > 100 µM (inactive) | GI50 [29]: > 100 µM (inactive) | GI50 [30]: > 69.5 µM (inactive) | GI50 [31]: > 68.7 µM (inactive) | GI50 [32]: 4.86 µM (inactive) | GI50 [33]: > 100 µM (inactive) | GI50 [34]: > 100 µM (inactive) | GI50 [35]: > 100 µM (inactive) | GI50 [36]: > 72.1 µM (inactive) | GI50 [37]: > 81.3 µM (inactive) | GI50 [38]: > 100 µM (inactive) | GI50 [39]: > 47.1 µM (inactive) | GI50 [40]: > 100 µM (inactive) | GI50 [41]: > 33.2 µM (inactive) | GI50 [42]: > 100 µM (inactive) | GI50 [43]: > 100 µM (inactive) | GI50 [44]: > 100 µM (inactive) | GI50 [45]: 0.31 µM (active) | GI50 [46]: 41.4 µM (inactive) | GI50 [47]: > 36.6 µM (inactive) | GI50 [48]: > 71.1 µM (inactive) | GI50 [49]: > 46 µM (inactive) | GI50 [50]: 1 µM (active) | GI50 [51]: > 100 µM (inactive) | GI50 [52]: 2.31 µM (inactive) | GI50 [53]: > 77.4 µM (inactive) | GI50 [54]: > 85.3 µM (inactive) | GI50 [55]: 0.242 µM (active) | GI50 [56]: > 100 µM (inactive) | GI50 [57]: 13.8 µM (inactive)

Cc1ccc2c(c1)C1(C)OC(C=CC1=O)O2 (stereo unspecified)
GI50 [1]: 0.261 µM (active) | GI50 [2]: 3.89 µM (inactive) | GI50 [3]: 3.24 µM (inactive) | GI50 [4]: 0.522 µM (active) | GI50 [5]: 0.389 µM (active) | GI50 [6]: 0.31 µM (active) | GI50 [7]: 0.114 µM (active) | GI50 [8]: 0.384 µM (active) | GI50 [9]: 2.72 µM (inactive) | GI50 [10]: 2.45 µM (inactive) | GI50 [11]: 2.84 µM (inactive) | GI50 [58]: 0.204 µM (active) | GI50 [12]: 0.265 µM | GI50 [13]: 0.104 µM (active) | GI50 [14]: 3.43 µM (inactive) | GI50 [15]: 0.435 µM (active) | GI50 [16]: 0.267 µM (active) | GI50 [17]: 2.9 µM (inactive) | GI50 [18]: 2.18 µM (inactive) | GI50 [19]: 0.147 µM (active) | GI50 [20]: 0.736 µM (active) | GI50 [21]: 0.573 µM (active) | GI50 [22]: 0.316 µM (active) | GI50 [23]: 1.27 µM (inactive) | GI50 [24]: 0.564 µM (active) | GI50 [25]: 0.182 µM (active) | GI50 [26]: 0.18 µM (active) | GI50 [27]: 0.225 µM (active) | GI50 [28]: 0.341 µM (active) | GI50 [29]: 3.02 µM (inactive) | GI50 [59]: 0.94 µM (active) | GI50 [30]: 2.21 µM (inactive) | GI50 [31]: 0.0769 µM (active) | GI50 [32]: 0.0681 µM (active) | GI50 [33]: 0.344 µM (active) | GI50 [34]: 0.774 µM (active) | GI50 [35]: 1.85 µM (inactive) | GI50 [36]: 0.282 µM (active) | GI50 [37]: 0.499 µM (active) | GI50 [38]: 0.308 µM (active) | GI50 [39]: 0.445 µM (active) | GI50 [40]: 1.41 µM (inactive) | GI50 [41]: 2.79 µM (inactive) | GI50 [42]: 0.488 µM (active) | GI50 [43]: 0.586 µM (active) | GI50 [44]: 1.77 µM (inactive) | GI50 [45]: 1.32 µM (inactive) | GI50 [46]: 3.24 µM (inactive) | GI50 [47]: 0.308 µM (active) | GI50 [48]: 2.75 µM (inactive) | GI50 [49]: 1.68 µM (inactive) | GI50 [50]: 0.106 µM (active) | GI50 [51]: 0.237 µM (active) | GI50 [52]: 0.705 µM (active) | GI50 [53]: 1.4 µM (inactive) | GI50 [54]: 0.29 µM (active) | GI50 [55]: 1.01 µM (active) | GI50 [56]: 0.839 µM (active) | GI50 [57]: 1.14 µM (inactive)
